Patent US11427548B2 (Arvinas Operations, Inc., priority 2015, dated 2022)
Read-outs that look alike come from different tables or passages of the source.

Target: T1, Androgen Receptor (Homo sapiens, UniProt P10275)
T1 construct: endogenous in cells; host or cells: VCaP cells
T1 sequence (P10275 1-920): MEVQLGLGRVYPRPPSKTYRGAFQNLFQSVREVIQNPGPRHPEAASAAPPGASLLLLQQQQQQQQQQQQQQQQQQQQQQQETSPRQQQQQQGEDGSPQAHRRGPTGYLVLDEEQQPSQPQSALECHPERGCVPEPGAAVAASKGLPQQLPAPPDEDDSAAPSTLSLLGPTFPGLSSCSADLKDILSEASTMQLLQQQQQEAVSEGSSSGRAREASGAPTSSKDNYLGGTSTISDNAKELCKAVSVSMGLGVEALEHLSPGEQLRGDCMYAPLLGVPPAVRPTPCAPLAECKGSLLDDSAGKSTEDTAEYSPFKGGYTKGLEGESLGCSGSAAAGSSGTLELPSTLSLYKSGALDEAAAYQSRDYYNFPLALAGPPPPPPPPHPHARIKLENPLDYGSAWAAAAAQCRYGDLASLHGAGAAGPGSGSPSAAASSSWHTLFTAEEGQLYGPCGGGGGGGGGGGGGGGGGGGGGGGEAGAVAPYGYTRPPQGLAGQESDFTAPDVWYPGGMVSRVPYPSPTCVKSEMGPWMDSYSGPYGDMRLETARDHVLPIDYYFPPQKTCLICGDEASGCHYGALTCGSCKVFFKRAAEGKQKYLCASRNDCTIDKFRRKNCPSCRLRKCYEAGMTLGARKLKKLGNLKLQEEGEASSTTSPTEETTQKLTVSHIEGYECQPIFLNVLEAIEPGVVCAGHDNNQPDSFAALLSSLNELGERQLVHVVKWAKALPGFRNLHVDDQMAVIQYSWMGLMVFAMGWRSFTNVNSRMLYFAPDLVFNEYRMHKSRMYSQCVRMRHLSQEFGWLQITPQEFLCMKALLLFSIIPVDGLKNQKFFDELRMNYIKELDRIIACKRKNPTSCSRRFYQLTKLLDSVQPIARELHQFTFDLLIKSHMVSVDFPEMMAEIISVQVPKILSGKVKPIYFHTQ
Test: Androgen Receptor ELISA assay (PathScan AR ELISA) in VCaP cells: AR degradation, Dmax and DC50
Assay type: cell-based
Details: Table 35; for DC50: read-out: VCaP DC50; for Dmax: VCaP
Outline: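 VCaP cells, 30,000/well, grown ≥3 days in phenol red-free RPMI with 5% charcoal-stripped FBS; compound added in 0.1% DMSO with 0.1 nM R1881, 7 half-log doses, 24 h. Lysate AR quantified by PathScan sandwich ELISA, HRP/TMB read at 450 nm, giving DC50 and Dmax.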

[1] = VCaP cells, read-out: VCaP Dmax (%)

Compound	DC50 (VCaP cells)	Dmax [1]	Dmax (read-out: VCaP Dmax (%), VCaP cells)
Cc1ncsc1-c1ccc([C@H](C)NC(=O)[C@@H]2C[C@@H](O)CN2C(=O)[C@@H](NC(=O)COCCCCCNc2ccc(C(=O)N[C@H]3C(C)(C)[C@H](Oc4ccc(C#N)c(Cl)c4)C3(C)C)c(F)c2)C(C)(C)C)cc1 [Example 495]	> 0.501 µM	26 to 50%	–
Cc1ncsc1-c1ccc([C@H](C)NC(=O)[C@@H]2C[C@@H](O)CN2C(=O)[C@@H](NC(=O)COCCCCCNc2ccc(C(=O)N[C@H]3C[C@H](Oc4ccc(C#N)c(Cl)c4)C3)cc2)C(C)(C)C)cc1 [Example 496]	< 0.05 µM	51 to 70%	–
Cc1ncsc1-c1ccc([C@H](C)NC(=O)[C@@H]2C[C@@H](O)CN2C(=O)[C@@H](NC(=O)COCCCCCNc2ccc(C(=O)N[C@H]3C(C)(C)[C@H](Oc4cnc(C#N)c(C(F)(F)F)c4)C3(C)C)cc2)C(C)(C)C)cc1 [Example 497]	< 0.05 µM	51 to 70%	–
CC(C)(C)[C@H](NC(=O)CNc1ccc(C#Cc2ccc(C(=O)N[C@H]3C(C)(C)[C@H](Oc4ccc(C#N)c(Cl)c4)C3(C)C)cc2)cn1)C(=O)N1C[C@H](O)C[C@H]1C(=O)NCc1ccc(C#N)cc1 [Example 498]	< 0.05 µM	> 71%	–
CC(C)(C)[C@H](NC(=O)COCCCCCNc1ccc(C(=O)N[C@H]2C(C)(C)[C@H](Oc3ccc(C#N)c(Cl)c3)C2(C)C)cc1)C(=O)N1C[C@H](O)C[C@H]1C(=O)NCc1ccc(C2=CCNCC2)cc1 [Example 499]	> 0.501 µM	26 to 50%	–
CC(C)(C)[C@H](NC(=O)CNCCNc1ccc(-c2ccc(C(=O)N[C@H]3C(C)(C)[C@H](Oc4ccc(C#N)c(Cl)c4)C3(C)C)cc2)cn1)C(=O)N1C[C@H](O)C[C@H]1C(=O)NCc1ccc(C#N)cc1 [Example 500]	< 0.05 µM	26 to 50%	–
CC(C)(C)[C@H](NC(=O)CNCCOc1ccc(-c2ccc(C(=O)N[C@H]3C(C)(C)[C@H](Oc4ccc(C#N)c(Cl)c4)C3(C)C)cc2)cc1)C(=O)N1C[C@H](O)C[C@H]1C(=O)NCc1ccc(C#N)cc1 [Example 501]	< 0.05 µM	51 to 70%	–
CC(C)(C)[C@H](NC(=O)COCCCCCNc1ccc(C(=O)N[C@H]2C(C)(C)[C@H](Oc3ccc(C#N)c(Cl)c3)C2(C)C)cc1)C(=O)N1C[C@H](O)C[C@H]1C(=O)NCc1ccc(-c2scnc2C(=O)O)cc1 [Example 502]	0.051 to 0.5 µM	26 to 50%	–
CC(C)(C)[C@H](NC(=O)COCCCCCNc1ccc(C(=O)N[C@H]2C(C)(C)[C@H](Oc3ccc(C#N)c(Cl)c3)C2(C)C)cc1)C(=O)N1C[C@H](O)C[C@H]1C(=O)NCc1ccc(-c2scnc2N)cc1 [Example 503]	< 0.05 µM	> 71%	–
CC(C)(C)[C@H](NC(=O)COCCCCCNc1ccc(C(=O)N[C@H]2C(C)(C)[C@H](Oc3ccc(C#N)c(Cl)c3)C2(C)C)cc1)C(=O)N1C[C@H](O)C[C@H]1C(=O)NCc1ccc(-c2ncns2)cc1 [Example 504]	< 0.05 µM	51 to 70%	–
CC(C)(C)[C@H](NC(=O)COCCCCCNc1ccc(C(=O)N[C@H]2C(C)(C)[C@H](Oc3ccc(C#N)c(Cl)c3)C2(C)C)cc1)C(=O)N1C[C@H](O)C[C@H]1C(=O)NCc1ccc(-n2cnnn2)cc1 [Example 505]	< 0.05 µM	26 to 50%	–
CC(C)(C)[C@H](NC(=O)COCCCCCNc1ccc(C(=O)N[C@H]2C(C)(C)[C@H](Oc3ccc(C#N)c(Cl)c3)C2(C)C)cc1)C(=O)N1C[C@H](O)C[C@H]1C(=O)NCc1ccc(-n2ncnn2)cc1 [Example 506]	< 0.05 µM	51 to 70%	–
CNC(=O)[C@@H]1C[C@@H](O)CN1C(=O)[C@@H](NC(=O)COCCCCCOc1ccc(C(=O)N[C@H]2C(C)(C)[C@H](Oc3ccc(C#N)c(Cl)c3)C2(C)C)cc1)C(C)(C)C [Example 507]	< 0.05 µM	26 to 50%	–
CNCC(NC(=O)[C@@H]1C[C@@H](O)CN1C(=O)[C@@H](NC(=O)COCCCCCOc1ccc(C(=O)N[C@H]2C(C)(C)[C@H](Oc3ccc(C#N)c(Cl)c3)C2(C)C)cc1)C(C)(C)C)c1ccc(-c2scnc2C)cc1 (stereo partly drawn) [Example 508]	< 0.05 µM	> 71%	–
CC(C)(C)[C@H](NC(=O)COCCCCCOc1ccc(C(=O)N[C@H]2C(C)(C)[C@H](Oc3ccc(C#N)c(Cl)c3)C2(C)C)cc1)C(=O)N1C[C@H](O)C[C@H]1C(=O)O [Example 509]	0.051 to 0.5 µM	26 to 50%	–
COc1cc(C#N)ccc1CNC(=O)[C@@H]1C[C@@H](O)CN1C(=O)[C@@H](NC(=O)COCCCCCNc1ccc(C(=O)N[C@H]2C(C)(C)[C@H](Oc3ccc(C#N)c(Cl)c3)C2(C)C)cc1)C(C)(C)C [Example 510]	< 0.05 µM	51 to 70%	–
CNC(=O)c1ccc(CNC(=O)[C@@H]2C[C@@H](O)CN2C(=O)[C@@H](NC(=O)COCCCCCNc2ccc(C(=O)N[C@H]3C(C)(C)[C@H](Oc4ccc(C#N)c(Cl)c4)C3(C)C)cc2)C(C)(C)C)cc1 [Example 511]	< 0.05 µM	51 to 70%	–
CC(C)(C)[C@H](NC(=O)COCCCCCNc1ccc(C(=O)N[C@H]2C(C)(C)[C@H](Oc3ccc(C#N)c(Cl)c3)C2(C)C)cc1)C(=O)N1C[C@H](O)C[C@H]1C(=O)NCc1ccc(C(=O)O)cc1 [Example 512]	0.051 to 0.5 µM	51 to 70%	–

Results, then the compound that gave them:

DC50 (VCaP cells)	Dmax [1]	Dmax (read-out: VCaP Dmax (%), VCaP cells)	Compound
< 0.05 µM	> 71%	–	Cc1ncsc1-c1ccc(CNC(=O)[C@@H]2C[C@@H](O)CN2C(=O)[C@@H](NC(=O)COCCNc2ccc(-c3c(F)cc(C(=O)N[C@H]4C(C)(C)[C@H](Oc5ccc(C#N)c(Cl)c5)C4(C)C)cc3F)cn2)C(C)(C)C)cc1 [Example 513]
> 0.501 µM	26 to 50%	–	CNC[C@@H](NC(=O)[C@@H]1C[C@@H](O)CN1C(=O)[C@@H](NC(=O)COCCCCCOc1ccc(C(=O)N[C@H]2C(C)(C)[C@H](Oc3ccc(C#N)c(Cl)c3)C2(C)C)cc1)C(C)(C)C)c1ccc(-c2scnc2C)cc1 [Example 514]
< 0.05 µM	> 71%	–	CNC[C@H](NC(=O)[C@@H]1C[C@@H](O)CN1C(=O)[C@@H](NC(=O)COCCCCCOc1ccc(C(=O)N[C@H]2C(C)(C)[C@H](Oc3ccc(C#N)c(Cl)c3)C2(C)C)cc1)C(C)(C)C)c1ccc(-c2scnc2C)cc1 [Example 515]
< 0.05 µM	> 71%	–	Cc1ncsc1-c1ccc(CNC(=O)[C@@H]2C[C@@H](O)CN2C(=O)[C@@H](NC(=O)COCCCCCNc2ccc(C(=O)N[C@H]3C(C)(C)[C@H](Oc4ccc(C#N)c(Cl)c4)C3(C)C)cc2)C(C)(C)C)cn1 [Example 516]
< 0.05 µM	> 71%	–	C[C@H](NC(=O)[C@@H]1C[C@@H](O)CN1C(=O)[C@@H](NC(=O)COCCCCCNc1ccc(C(=O)N[C@H]2C(C)(C)[C@H](Oc3ccc(C#N)c(Cl)c3)C2(C)C)cc1)C(C)(C)C)c1ccc(-c2c[nH]nn2)cc1 [Example 517]
> 0.501 µM	–	< 25%	CC(C)(C)[C@H](NC(=O)COCCCCCNc1ccc(C(=O)N[C@H]2C(C)(C)[C@H](Oc3ccc(C#N)c(Cl)c3)C2(C)C)cc1)C(=O)N1C[C@H](O)C[C@H]1C(=O)NCc1ccc(-c2nnn[nH]2)cc1 [Example 518]
< 0.05 µM	26 to 50%	–	COC(=O)[C@@H]1C[C@@H](O)CN1C(=O)[C@@H](NC(=O)COCCCCCOc1ccc(C(=O)N[C@H]2C(C)(C)[C@H](Oc3ccc(C#N)c(Cl)c3)C2(C)C)cc1)C(C)(C)C [Example 519]
> 0.501 µM	26 to 50%	–	CC(C)[C@H](NC(=O)COCCCCCNc1ccc(C(=O)N[C@H]2C(C)(C)[C@H](Oc3ccc(C#N)c(Cl)c3)C2(C)C)cc1)C(=O)N1C[C@H](O)C[C@H]1C(=O)NCc1ccc(C#N)cc1 [Example 520]
< 0.05 µM	51 to 70%	–	CC(C)(C)[C@H](NC(=O)COCCCCCNc1ccc(C(=O)N[C@H]2C(C)(C)[C@H](Oc3ccc(C#N)c(Cl)c3)C2(C)C)cc1)C(=O)N1C[C@H](O)C[C@H]1C(=O)NCc1ccc(-c2scnc2C#N)cc1 [Example 521]
< 0.05 µM	51 to 70%	–	COc1ccc(CNC(=O)[C@@H]2C[C@@H](O)CN2C(=O)[C@@H](NC(=O)COCCCCCNc2ccc(C(=O)N[C@H]3C(C)(C)[C@H](Oc4ccc(C#N)c(Cl)c4)C3(C)C)cc2)C(C)(C)C)cc1 [Example 522]
< 0.05 µM	51 to 70%	–	CC(C)(C)[C@H](NC(=O)COCCCCCNc1ccc(C(=O)N[C@H]2C(C)(C)[C@H](Oc3ccc(C#N)c(Cl)c3)C2(C)C)cc1)C(=O)N1C[C@H](O)C[C@H]1C(=O)NCc1ccc(C#N)nc1 [Example 523]
< 0.05 µM	51 to 70%	–	CC(C)(C)[C@H](NC(=O)COCCNc1ccc(-c2ccc(C(=O)N[C@H]3C(C)(C)[C@H](Oc4ccc(C#N)c(Cl)c4)C3(C)C)cc2)cc1)C(=O)N1C[C@H](O)C[C@H]1C(=O)NCc1ccc(C#N)cc1 [Example 524]
